Results: article PMC11111408, “Concurrent inhibition of oncogenic and wild-type RAS-GTP for cancer therapy” (Nature, 2024)
Several values for one entry are separate records, joined by “and”; a condition that tells them apart may be missing. Identical values can stand only once.

What was measured:
NRAS^Q61R = NRAS^Q61R (Homo sapiens, UniProt P01111+P62937, Q61R); experiment: RAS binding affinity of compound-bound CYPA (Kd2), SPR; conditions: steady state SPR, (95% CI)
[1] = target: T1, MRAS and other RAS family small GTPase proteins (Homo sapiens, UniProt P10301, G38V); experiment: Cellular BRET between CYPA and small GTPases (RIT1, MRAS, RRAS, RRAS2, Rheb); type: cell-based; conditions: RRAS G38V, single replicates
T1 construct: expressed in transfected cells; host or cells: U2OS PPIA-KO
T1 sequence (P10301 1-218 G38V): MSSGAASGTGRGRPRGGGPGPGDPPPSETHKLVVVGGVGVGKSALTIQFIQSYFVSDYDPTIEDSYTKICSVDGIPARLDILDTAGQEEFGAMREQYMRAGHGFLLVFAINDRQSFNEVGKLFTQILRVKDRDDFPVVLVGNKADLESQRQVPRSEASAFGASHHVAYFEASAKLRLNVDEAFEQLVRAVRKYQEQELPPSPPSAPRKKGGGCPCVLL

[2] = target: T2, MRAS and other RAS family small GTPase proteins (Homo sapiens, UniProt P62070, G23V); experiment: as above; type: cell-based; conditions: RRAS2 G23V, single replicates
T2 construct: expressed in transfected cells; host or cells: U2OS PPIA-KO
T2 sequence (P62070 1-204 G23V): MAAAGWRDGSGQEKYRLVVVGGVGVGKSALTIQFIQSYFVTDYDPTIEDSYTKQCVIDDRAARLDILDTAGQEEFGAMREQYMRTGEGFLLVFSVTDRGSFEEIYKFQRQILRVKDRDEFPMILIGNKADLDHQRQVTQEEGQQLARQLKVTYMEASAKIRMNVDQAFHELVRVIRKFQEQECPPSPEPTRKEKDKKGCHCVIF

[3] = target: T3, MRAS and other RAS family small GTPase proteins (Homo sapiens, UniProt Q15382); experiment: as above; type: cell-based; conditions: RHEB, single replicates
T3 construct: expressed in transfected cells; host or cells: U2OS PPIA-KO

[4] = target: T4, MRAS and other RAS family small GTPase proteins (Homo sapiens, UniProt Q92963); experiment: as above; type: cell-based; conditions: RIT1, single replicates
T4 construct: expressed in transfected cells; host or cells: U2OS PPIA-KO

[5] = Cell-to-medium concentration ratio of RMC-7977 (LC–MS/MS bioanalysis of cells and supernatant); type: in vitro ADME, human
Description: Cells were pelleted by centrifugation, and 1 ml of supernatant was reserved and frozen at −80 °C. Cell pellets were washed twice in cold PBS, and pre-weighed tubes containing the cell pellets were weighed prior to snap freezing in a slurry of dry ice and ethanol. […] Cell pellet samples were resuspended in cell medium (diluted as needed), then treated as supernatant. An aliquot of supernatant or resuspended cells (50 µL) was quenched with a 3× volume of acetonitrile containing the internal standard terfenadine (2.5 ng ml^−1). […] The lower limit of quantification was 0.25 ng ml^−1, and the calibration range was 0.25 to 400 ng ml^−1.

KRAS WT = KRAS WT (Homo sapiens, UniProt P01116+P62937); experiment: Cellular RAS–RAF (CRAF RBD) disruption, nano-BRET in U2OS cells; type: cell-based; set-up: expressed in transfected cells; host or cells: U2OS; conditions: (95% CI)
Source text: (§1) KRAS4B, or other small GTPases, containing the indicated mutations were cloned in pNLF-N or pHTN plasmids for expression with an N-terminal nanoluciferase or HaloTag fusion, respectively. […] The following day, the cells were collected by Trypsin and reseeded in a white tissue culture-treated 96-well plate in OptiMem phenol red-free medium (Gibco) containing 4% FBS and a 1:1,000 dilution of NanoBRET 618 HaloTag ligand (Promega). For endpoint concentration response curves, vivazine nanoluciferase substrate was added to 1× concentration in OptiMem phenol red-free medium with 4% FBS. Varying concentrations of inhibitor were added and incubated for 1 or 4 h before the nano-BRET signal was measured on a Perkin Elmer Envision plate reader. For kinetic assays, endurazine nanoluciferase substrate was used in place of vivazine, and the plate was placed in a Cytation5 multi-mode reader pre-equilibrated to 37 °C and 5% CO2.

KRAS^G12C = KRAS^G12C (Homo sapiens, UniProt P01116+P62937, G12C); experiment: as above; type: cell-based; set-up: expressed in transfected cells; host or cells: U2OS; conditions: (95% CI)
Source text: as §1

KRAS^G12D = KRAS^G12D (Homo sapiens, UniProt P01116+P62937, G12D); experiment: as above; type: cell-based; set-up: expressed in transfected cells; host or cells: U2OS; conditions: (95% CI)
Source text: as §1

KRAS^G12R = KRAS^G12R (Homo sapiens, UniProt P01116+P62937, G12R); experiment: as above; type: cell-based; set-up: expressed in transfected cells; host or cells: U2OS; conditions: (95% CI)
Source text: as §1

KRAS^G13C = KRAS^G13C (Homo sapiens, UniProt P01116+P62937, G13C); experiment: as above; type: cell-based; set-up: expressed in transfected cells; host or cells: U2OS; conditions: (95% CI)
Source text: as §1

[6] = tested on: NCI-H441, HPAC and SW620 CDX models; experiment: CDX models, RMC-7977 versus SHP2 and MEK inhibitors; conditions: three KRAS^G12X models; RMC-7977 10 mg kg^−1 once daily, RMC-4550 20 mg kg^−1 every 2 days, cobimetinib 2.5 mg kg^−1 once daily, alone or in combination
Description: Data are mean ± s.e.m. of 3–18 mice per group.
Female BALB/c nude mice, NOD SCID and NSG mice 6-8 weeks old from Beijing Vital River/VR Laboratory Animal Co., LTD, Beijing AniKeeper Biotech Co., Ltd., Shanghai Sino-British SIPPR/BK Laboratory Animal Co., LTD and The Jackson Laboratory were used. Animals were housed in polycarbonate cages, in an environmentally monitored, well ventilated room maintained at a constant temperature of 20-26°C and relative humidity of 40-80%. Fluorescent lighting provided illumination approximately 12 hours per day. Each mouse was inoculated at the right flank with tumor cells (2x10^6-1x10^7) in 100-200 µL of media/PBS supplemented with Matrigel (1:1). Treatments were started when the average tumor size reached 100-250 mm^3. […] Mice on studies were weighed and tumor measurements collected twice weekly. Human primary cancer xenograft models were generated using fresh cancer tumor fragments obtained from hospitals with informed consent from the patients in accordance with protocols approved by the Hospital Institutional Ethical Committee (IEC). Tumor fragments were serial-passaged in BABL/c nude mice and then cryopreserved. Cryopreserved tumors were recovered by implantation in BALB/c nude mice and further serial passaged and frozen for study implantation use. Recovered tumor fragments of about 15-30 mm3 in size from each model were implanted into right flanks of Balb/c nude mice. Treatment started when average tumor volume reached 100-250mm^3. For efficacy study, Animals were assigned to study groups using stratified randomization based upon their tumor volumes (n=3-10/group). […] Animals were treated for 28 days (or up to 110 for selected models) or an earlier time if tumor burden reached humane endpoint. Mean ± s.e.m was plotted in the waterfall plots. The dashed line on waterfall plot indicates a 10% reduction in tumor volume from baseline. […] Body weights were collected twice a week during the study. For single-dose pharmacokinetic/pharmacodynamics (PK/PD) study, mice were randomized into treatment groups when mean tumor volume reached 400-600 mm^3.

CCn1c(-c2cc(N3CCN(C4CC4)CC3)cnc2[C@H](C)OC)c2c3cc(ccc31)-c1csc(n1)C[C@H](NC(=O)[C@H]1[C@@H]3COC[C@@H]31)C(=O)N1CCC[C@H](N1)C(=O)OCC(C)(C)C2 [RMC-7977]
Kd (NRAS^Q61R): 239 nM | Cellular milliBRET signal between CYPA and small GTPase protein ([1]; RMC-7977 1.524 nM): 0.03915 milliBRET and 0.5182 milliBRET and 0.5529 milliBRET and 0.4086 milliBRET and -0.3288 milliBRET and -0.1046 milliBRET | Cellular milliBRET signal between CYPA and small GTPase protein ([1]; RMC-7977 4.572 nM): 0.5753 milliBRET and 0.4746 milliBRET and 0.4726 milliBRET and 0.8392 milliBRET and 0.3184 milliBRET and -0.4343 milliBRET | Cellular milliBRET signal between CYPA and small GTPase protein ([1]; RMC-7977 13.717 nM): 1.433 milliBRET and 1.375 milliBRET and 1.967 milliBRET and 1.168 milliBRET and -0.05818 milliBRET and -0.1444 milliBRET | Cellular milliBRET signal between CYPA and small GTPase protein ([1]; RMC-7977 41.152 nM): 2.179 milliBRET and 2.7799 milliBRET and 3.446 milliBRET and 3.438 milliBRET and 1.092 milliBRET and 1.757 milliBRET | Cellular milliBRET signal between CYPA and small GTPase protein ([1]; RMC-7977 123.457 nM): 6.2456 milliBRET and 5.867 milliBRET and 7.851 milliBRET and 6.806 milliBRET and 4.695 milliBRET and 3.825 milliBRET | Cellular milliBRET signal between CYPA and small GTPase protein ([1]; RMC-7977 370.370 nM): 10.4854 milliBRET and 10.0017 milliBRET and 10.9416 milliBRET and 10.5658 milliBRET and 8.5015 milliBRET and 8.57 milliBRET | Cellular milliBRET signal between CYPA and small GTPase protein ([1]; RMC-7977 1111.111 nM): 11.032 milliBRET and 12.1599 milliBRET and 11.6879 milliBRET and 11.9893 milliBRET and 10.1243 milliBRET and 10.2861 milliBRET | Cellular milliBRET signal between CYPA and small GTPase protein ([2]; RMC-7977 1.524 nM): -0.2719 milliBRET and -0.4231 milliBRET and 0.2605 milliBRET and -0.1984 milliBRET and 0.524 milliBRET and 0.04711 milliBRET | Cellular milliBRET signal between CYPA and small GTPase protein ([2]; RMC-7977 4.572 nM): -0.5269 milliBRET and -0.1093 milliBRET and -0.06611 milliBRET and -0.1023 milliBRET and 0.1899 milliBRET and 0.4007 milliBRET | Cellular milliBRET signal between CYPA and small GTPase protein ([2]; RMC-7977 13.717 nM): 0.6404 milliBRET and 0.07312 milliBRET and 0.4941 milliBRET and 0.7558 milliBRET and 0.6549 milliBRET and 1.032 milliBRET | Cellular milliBRET signal between CYPA and small GTPase protein ([2]; RMC-7977 41.152 nM): 0.4251 milliBRET and 1.3441 milliBRET and 1.494 milliBRET and 1.804 milliBRET and 1.776 milliBRET and 2.155 milliBRET | Cellular milliBRET signal between CYPA and small GTPase protein ([2]; RMC-7977 123.457 nM): 1.79 milliBRET and 2.3918 milliBRET and 3.205 milliBRET and 3.2803 milliBRET and 3.617 milliBRET and 3.886 milliBRET | Cellular milliBRET signal between CYPA and small GTPase protein ([2]; RMC-7977 370.370 nM): 4.62 milliBRET and 5.516 milliBRET and 5.967 milliBRET and 6.807 milliBRET and 6.877 milliBRET and 7.887 milliBRET | Cellular milliBRET signal between CYPA and small GTPase protein ([2]; RMC-7977 1111.111 nM): 5.956 milliBRET and 7.6238 milliBRET and 6.926 milliBRET and 8.351 milliBRET and 7.549 milliBRET and 9.519 milliBRET | Cellular milliBRET signal between CYPA and small GTPase protein ([3]; RMC-7977 1.524 nM): -0.45 milliBRET and -0.2239 milliBRET and 0.1289 milliBRET and 0.6887 milliBRET and -0.5364 milliBRET and -0.5485 milliBRET | Cellular milliBRET signal between CYPA and small GTPase protein ([3]; RMC-7977 4.572 nM): 0.6966 milliBRET and 0.368 milliBRET and 0.4716 milliBRET and -0.2095 milliBRET and 0.8367 milliBRET and -0.3539 milliBRET | Cellular milliBRET signal between CYPA and small GTPase protein ([3]; RMC-7977 13.717 nM): 1.377 milliBRET and 0.5452 milliBRET and 0.5599 milliBRET and 0.1038 milliBRET and 0.7915 milliBRET and 0.2385 milliBRET | Cellular milliBRET signal between CYPA and small GTPase protein ([3]; RMC-7977 41.152 nM): 0.3762 milliBRET and 0.1445 milliBRET and -0.08351 milliBRET and -0.3538 milliBRET and 0.07098 milliBRET and 0.09785 milliBRET | Cellular milliBRET signal between CYPA and small GTPase protein ([3]; RMC-7977 123.457 nM): 1.173 milliBRET and 0.0474 milliBRET and 0.6247 milliBRET and 0.06196 milliBRET and -0.03233 milliBRET and -0.4308 milliBRET | Cellular milliBRET signal between CYPA and small GTPase protein ([3]; RMC-7977 370.370 nM): 0.02833 milliBRET and 1.208 milliBRET and -0.3412 milliBRET and 1.195 milliBRET and -0.2334 milliBRET and 1.355 milliBRET | Cellular milliBRET signal between CYPA and small GTPase protein ([3]; RMC-7977 1111.111 nM): 0.8505 milliBRET and -0.1562 milliBRET and 0.9686 milliBRET and -0.197 milliBRET and 0.47 milliBRET and 0.6063 milliBRET | Cellular milliBRET signal between CYPA and small GTPase protein ([4]; RMC-7977 1.524 nM): -0.09879 milliBRET and 0.3095 milliBRET and 0.2348 milliBRET and 0.5374 milliBRET and 0.06248 milliBRET and 1.089 milliBRET | Cellular milliBRET signal between CYPA and small GTPase protein ([4]; RMC-7977 4.572 nM): 1.317 milliBRET and 0.9916 milliBRET and 1.087 milliBRET and 0.9533 milliBRET and 1.62 milliBRET and 0.6301 milliBRET | Cellular milliBRET signal between CYPA and small GTPase protein ([4]; RMC-7977 13.717 nM): 2.2977 milliBRET and 1.206 milliBRET and 2.0899 milliBRET and 1.6222 milliBRET and 2.532 milliBRET and 1.262 milliBRET | Cellular milliBRET signal between CYPA and small GTPase protein ([4]; RMC-7977 41.152 nM): 3.198 milliBRET and 4.946 milliBRET and 3.114 milliBRET and 5.017 milliBRET and 3.557 milliBRET and 4.376 milliBRET | Cellular milliBRET signal between CYPA and small GTPase protein ([4]; RMC-7977 123.457 nM): 3.95 milliBRET and 6.444 milliBRET and 3.939 milliBRET and 6.521 milliBRET and 4.166 milliBRET and 6.383 milliBRET | Cellular milliBRET signal between CYPA and small GTPase protein ([4]; RMC-7977 370.370 nM): 5.287 milliBRET and 9.701 milliBRET and 5.757 milliBRET and 9.124 milliBRET and 5.435 milliBRET and 8.897 milliBRET | Cellular milliBRET signal between CYPA and small GTPase protein ([4]; RMC-7977 1111.111 nM): 5.773 milliBRET and 8.825 milliBRET and 5.603 milliBRET and 8.649 milliBRET and 4.274 milliBRET and 8.593 milliBRET | LC/MS bioanalysis of cells treated with RMC-7977 ([5]; AsPC-1, RMC-7977 10 nM): 161.5 and 241.3 and 143.0 | LC/MS bioanalysis of cells treated with RMC-7977 ([5]; AsPC-1, RMC-7977 100 nM): 76.8 and 68.8 and 89.6 | LC/MS bioanalysis of cells treated with RMC-7977 ([5]; AsPC-1, RMC-7977 1000 nM): 50.6 and 44.9 | EC50 (KRAS WT): 34.5 nM | EC50 (KRAS^G12C): 5.06 nM | EC50 (KRAS^G12D): 9.5 nM | EC50 (KRAS^G12R): 21.2 nM | EC50 (KRAS^G13C): 17.2 nM | anti-tumour activity [6]: deep regressions in all three models
